Experiments:
[1] = target: T1, Serine/threonine-protein kinase PLK4 (Homo sapiens, UniProt O00444); assay: Inhibition of N-terminal GST-tagged human PLK4 (1 to 391 amino acids) expressed in Escherichia coli using TMB as substrate after 30 mins by indirect ELISA assay
T1 sequence (O00444 whole entry): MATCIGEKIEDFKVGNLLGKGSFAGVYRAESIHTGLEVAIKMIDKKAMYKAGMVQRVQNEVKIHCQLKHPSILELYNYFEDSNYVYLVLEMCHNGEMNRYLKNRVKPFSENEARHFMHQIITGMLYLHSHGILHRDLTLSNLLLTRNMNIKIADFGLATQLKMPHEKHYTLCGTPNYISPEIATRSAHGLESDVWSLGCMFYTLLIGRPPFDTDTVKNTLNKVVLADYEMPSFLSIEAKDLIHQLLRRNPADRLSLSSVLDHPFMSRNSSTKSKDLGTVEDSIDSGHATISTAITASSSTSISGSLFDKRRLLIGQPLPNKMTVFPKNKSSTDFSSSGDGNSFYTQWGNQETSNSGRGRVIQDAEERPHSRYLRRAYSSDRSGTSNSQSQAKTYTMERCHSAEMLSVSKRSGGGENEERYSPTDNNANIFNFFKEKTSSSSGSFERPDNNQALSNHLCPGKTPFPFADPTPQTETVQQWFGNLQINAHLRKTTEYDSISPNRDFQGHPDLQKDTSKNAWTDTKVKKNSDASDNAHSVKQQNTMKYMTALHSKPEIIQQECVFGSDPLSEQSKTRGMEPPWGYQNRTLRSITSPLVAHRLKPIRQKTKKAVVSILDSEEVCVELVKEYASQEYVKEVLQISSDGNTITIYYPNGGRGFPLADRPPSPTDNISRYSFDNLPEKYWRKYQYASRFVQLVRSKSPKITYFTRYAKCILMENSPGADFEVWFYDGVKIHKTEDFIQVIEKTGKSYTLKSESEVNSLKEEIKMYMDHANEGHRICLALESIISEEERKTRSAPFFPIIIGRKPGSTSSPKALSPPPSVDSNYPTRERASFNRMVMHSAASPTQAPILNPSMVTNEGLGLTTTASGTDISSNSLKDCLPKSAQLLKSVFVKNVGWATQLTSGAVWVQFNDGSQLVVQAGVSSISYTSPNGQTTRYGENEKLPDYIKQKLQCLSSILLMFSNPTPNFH

[2] = target: Serine/threonine-protein kinase PLK1 (Homo sapiens, UniProt P53350); assay: Inhibition of PLK1 (unknown origin) by FRET-based homogeneous assay
[3] = target: Serine/threonine-protein kinase PLK3 (Homo sapiens, UniProt Q9H4B4); assay: Inhibition of PLK3 (unknown origin) by FRET-based homogeneous assay
[4] = target: Serine/threonine-protein kinase PLK2 (Homo sapiens, UniProt Q9NYY3); assay: Inhibition of PLK2 (unknown origin) by FRET-based homogeneous assay
MDA-MB-468 = assay: Antiproliferative activity against human MDA-MB-468 cells assessed as growth inhibition after 5 days by SRB assay; format: functional; conditions: MDA-MB-468, 120 h
MCF7 = assay: Antiproliferative activity against human MCF7 cells assessed as growth inhibition after 5 days by SRB assay; format: functional; conditions: MCF7, 120 h
MDA-MB-231 = assay: Antiproliferative activity against human MDA-MB-231 cells assessed as growth inhibition after 5 days by SRB assay; format: functional; conditions: MDA-MB-231, 120 h
HCC1954 = assay: Antiproliferative activity against human HCC1954 cells assessed as growth inhibition after 5 days by SRB assay; format: functional; conditions: HCC1954, 120 h
SK-BR-3 = assay: Antiproliferative activity against human SKBR3 cells assessed as growth inhibition after 5 days by SRB assay; format: functional; conditions: SK-BR-3, 120 h
[5] = Permeability of the compound at pH 7.4 by PAMPA; format: ADME; conditions: read-out: permeability
Cytochrome P450 2D6 = Cytochrome P450 2D6 (Homo sapiens, UniProt P10635); assay: Inhibition of CYP2D6 (unknown origin) using AMMC as substrate after 30 mins by fluorescence assay; format: ADME
Cytochrome P450 2C19 = Cytochrome P450 2C19 (Homo sapiens, UniProt P33261); assay: Inhibition of CYP2C19 (unknown origin) using MFC as substrate after 30 mins by fluorescence assay; format: ADME
Cytochrome P450 1A2 = target: T2, Cytochrome P450 1A2 (Homo sapiens, UniProt P05177); assay: Inhibition of CYP1A2 (unknown origin) using CEC as substrate after 15 mins by fluorescence assay; format: ADME
T2 sequence (P05177 whole entry): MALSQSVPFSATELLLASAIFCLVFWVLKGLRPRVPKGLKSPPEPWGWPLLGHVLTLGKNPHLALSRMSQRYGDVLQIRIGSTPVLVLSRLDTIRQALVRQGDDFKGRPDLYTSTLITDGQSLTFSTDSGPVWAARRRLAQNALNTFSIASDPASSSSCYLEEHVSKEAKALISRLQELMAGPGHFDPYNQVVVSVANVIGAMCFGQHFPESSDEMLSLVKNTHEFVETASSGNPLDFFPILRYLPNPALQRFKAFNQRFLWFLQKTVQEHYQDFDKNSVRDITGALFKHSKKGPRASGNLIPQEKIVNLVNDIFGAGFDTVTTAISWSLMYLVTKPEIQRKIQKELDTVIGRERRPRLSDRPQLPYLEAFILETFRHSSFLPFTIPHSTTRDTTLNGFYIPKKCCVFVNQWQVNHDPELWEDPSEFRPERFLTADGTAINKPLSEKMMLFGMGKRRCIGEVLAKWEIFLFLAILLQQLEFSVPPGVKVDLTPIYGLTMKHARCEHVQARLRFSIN

Cytochrome P450 3A4 = Cytochrome P450 3A4 (Homo sapiens, UniProt P08684); assay: Inhibition of CYP3A4 (unknown origin) after 10 mins by fluorescence assay; format: ADME
Cytochrome P450 2C9 = Cytochrome P450 2C9 (Homo sapiens, UniProt P11712); assay: Inhibition of CYP2C9 (unknown origin) using MFC as substrate after 45 mins by fluorescence assay; format: ADME
Cytochrome P450 2C9, sequence (P11712 whole entry): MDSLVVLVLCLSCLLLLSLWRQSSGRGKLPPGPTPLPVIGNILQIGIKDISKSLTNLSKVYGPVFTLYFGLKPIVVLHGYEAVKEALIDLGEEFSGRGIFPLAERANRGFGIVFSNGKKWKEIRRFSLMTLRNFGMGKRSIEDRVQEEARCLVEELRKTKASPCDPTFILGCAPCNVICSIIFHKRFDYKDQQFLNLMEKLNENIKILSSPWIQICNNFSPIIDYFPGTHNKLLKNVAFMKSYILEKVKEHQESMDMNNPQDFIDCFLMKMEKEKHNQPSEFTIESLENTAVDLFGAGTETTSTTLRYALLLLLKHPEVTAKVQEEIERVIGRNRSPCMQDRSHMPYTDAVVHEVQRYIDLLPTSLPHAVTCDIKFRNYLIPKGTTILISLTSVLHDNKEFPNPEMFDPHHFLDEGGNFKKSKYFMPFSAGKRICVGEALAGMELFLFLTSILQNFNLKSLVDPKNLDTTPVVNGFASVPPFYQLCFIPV

Serine/threonine-protein kinase PLK2, sequence (Q9NYY3 whole entry): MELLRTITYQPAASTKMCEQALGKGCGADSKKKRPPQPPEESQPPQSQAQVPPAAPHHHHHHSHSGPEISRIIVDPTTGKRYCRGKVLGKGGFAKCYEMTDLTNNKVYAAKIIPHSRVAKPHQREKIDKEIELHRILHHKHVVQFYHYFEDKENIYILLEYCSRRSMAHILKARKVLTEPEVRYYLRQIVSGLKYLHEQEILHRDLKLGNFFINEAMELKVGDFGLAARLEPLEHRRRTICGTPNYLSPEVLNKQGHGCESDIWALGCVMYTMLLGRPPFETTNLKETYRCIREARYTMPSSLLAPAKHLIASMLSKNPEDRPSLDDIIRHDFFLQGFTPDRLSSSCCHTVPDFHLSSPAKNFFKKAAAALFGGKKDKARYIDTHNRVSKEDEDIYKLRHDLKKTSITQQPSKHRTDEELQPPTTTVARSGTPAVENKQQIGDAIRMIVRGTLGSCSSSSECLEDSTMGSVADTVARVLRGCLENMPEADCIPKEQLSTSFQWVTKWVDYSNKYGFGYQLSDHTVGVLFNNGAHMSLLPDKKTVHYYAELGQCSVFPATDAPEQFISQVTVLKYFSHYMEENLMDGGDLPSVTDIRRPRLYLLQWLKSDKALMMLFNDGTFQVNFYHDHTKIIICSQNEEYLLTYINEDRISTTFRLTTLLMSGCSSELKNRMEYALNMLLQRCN
Serine/threonine-protein kinase PLK1, sequence (P53350 whole entry): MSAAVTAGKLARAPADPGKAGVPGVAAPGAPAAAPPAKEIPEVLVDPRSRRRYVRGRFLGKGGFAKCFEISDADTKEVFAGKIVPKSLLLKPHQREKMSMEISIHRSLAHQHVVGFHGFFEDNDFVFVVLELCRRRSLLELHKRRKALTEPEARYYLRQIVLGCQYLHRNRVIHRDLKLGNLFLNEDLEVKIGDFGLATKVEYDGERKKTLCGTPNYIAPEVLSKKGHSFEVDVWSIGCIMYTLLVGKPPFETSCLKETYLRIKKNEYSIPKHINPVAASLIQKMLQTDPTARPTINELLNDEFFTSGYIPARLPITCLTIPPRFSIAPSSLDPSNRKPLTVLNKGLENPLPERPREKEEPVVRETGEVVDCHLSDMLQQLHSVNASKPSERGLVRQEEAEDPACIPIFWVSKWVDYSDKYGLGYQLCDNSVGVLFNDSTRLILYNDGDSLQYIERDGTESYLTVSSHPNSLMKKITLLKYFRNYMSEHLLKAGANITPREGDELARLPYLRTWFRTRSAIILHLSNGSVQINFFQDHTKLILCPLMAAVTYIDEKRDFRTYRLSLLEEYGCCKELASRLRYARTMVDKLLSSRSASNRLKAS
Serine/threonine-protein kinase PLK3, sequence (Q9H4B4 whole entry): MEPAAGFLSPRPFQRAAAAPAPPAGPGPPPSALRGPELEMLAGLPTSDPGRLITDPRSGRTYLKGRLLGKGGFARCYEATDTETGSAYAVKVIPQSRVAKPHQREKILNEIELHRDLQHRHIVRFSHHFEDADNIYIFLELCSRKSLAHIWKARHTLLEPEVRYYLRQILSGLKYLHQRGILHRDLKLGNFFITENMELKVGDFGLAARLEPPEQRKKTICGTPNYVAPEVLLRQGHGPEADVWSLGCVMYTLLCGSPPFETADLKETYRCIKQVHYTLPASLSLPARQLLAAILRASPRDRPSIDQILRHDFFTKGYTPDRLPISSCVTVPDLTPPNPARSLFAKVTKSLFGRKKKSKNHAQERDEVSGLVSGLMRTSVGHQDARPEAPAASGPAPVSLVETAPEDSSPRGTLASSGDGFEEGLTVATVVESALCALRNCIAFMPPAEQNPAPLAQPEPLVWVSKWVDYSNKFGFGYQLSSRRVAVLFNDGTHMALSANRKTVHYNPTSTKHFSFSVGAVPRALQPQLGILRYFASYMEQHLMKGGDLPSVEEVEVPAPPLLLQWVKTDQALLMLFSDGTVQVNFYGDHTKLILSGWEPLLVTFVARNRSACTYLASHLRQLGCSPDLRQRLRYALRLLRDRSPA
Cytochrome P450 2C19, sequence (P33261 whole entry): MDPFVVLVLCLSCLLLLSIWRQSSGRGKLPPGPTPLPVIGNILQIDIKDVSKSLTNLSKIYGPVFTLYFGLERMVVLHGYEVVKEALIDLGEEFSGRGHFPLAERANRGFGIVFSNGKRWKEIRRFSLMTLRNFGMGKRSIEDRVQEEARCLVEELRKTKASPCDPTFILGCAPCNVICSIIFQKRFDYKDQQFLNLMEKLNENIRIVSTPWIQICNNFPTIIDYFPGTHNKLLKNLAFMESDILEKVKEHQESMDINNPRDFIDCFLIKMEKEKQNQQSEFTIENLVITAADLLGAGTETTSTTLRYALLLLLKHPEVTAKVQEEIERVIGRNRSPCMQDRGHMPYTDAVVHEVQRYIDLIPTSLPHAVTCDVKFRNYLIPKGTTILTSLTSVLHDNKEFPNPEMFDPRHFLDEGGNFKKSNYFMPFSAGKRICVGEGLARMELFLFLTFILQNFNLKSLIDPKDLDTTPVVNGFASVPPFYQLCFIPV
Cytochrome P450 2D6, sequence (P10635 whole entry): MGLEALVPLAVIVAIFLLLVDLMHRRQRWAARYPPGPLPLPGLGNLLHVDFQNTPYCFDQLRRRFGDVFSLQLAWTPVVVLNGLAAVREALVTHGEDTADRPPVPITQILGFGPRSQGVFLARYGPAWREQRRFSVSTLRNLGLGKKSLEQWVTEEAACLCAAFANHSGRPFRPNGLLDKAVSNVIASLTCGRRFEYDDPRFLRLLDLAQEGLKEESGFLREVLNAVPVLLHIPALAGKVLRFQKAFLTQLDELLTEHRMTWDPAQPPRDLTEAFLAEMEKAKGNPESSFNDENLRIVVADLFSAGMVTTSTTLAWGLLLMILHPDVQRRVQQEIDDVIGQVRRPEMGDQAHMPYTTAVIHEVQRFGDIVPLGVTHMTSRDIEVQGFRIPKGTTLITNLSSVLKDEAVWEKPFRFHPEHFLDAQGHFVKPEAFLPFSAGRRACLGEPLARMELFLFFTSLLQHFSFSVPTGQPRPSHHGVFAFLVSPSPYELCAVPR
Cytochrome P450 3A4, sequence (P08684 whole entry): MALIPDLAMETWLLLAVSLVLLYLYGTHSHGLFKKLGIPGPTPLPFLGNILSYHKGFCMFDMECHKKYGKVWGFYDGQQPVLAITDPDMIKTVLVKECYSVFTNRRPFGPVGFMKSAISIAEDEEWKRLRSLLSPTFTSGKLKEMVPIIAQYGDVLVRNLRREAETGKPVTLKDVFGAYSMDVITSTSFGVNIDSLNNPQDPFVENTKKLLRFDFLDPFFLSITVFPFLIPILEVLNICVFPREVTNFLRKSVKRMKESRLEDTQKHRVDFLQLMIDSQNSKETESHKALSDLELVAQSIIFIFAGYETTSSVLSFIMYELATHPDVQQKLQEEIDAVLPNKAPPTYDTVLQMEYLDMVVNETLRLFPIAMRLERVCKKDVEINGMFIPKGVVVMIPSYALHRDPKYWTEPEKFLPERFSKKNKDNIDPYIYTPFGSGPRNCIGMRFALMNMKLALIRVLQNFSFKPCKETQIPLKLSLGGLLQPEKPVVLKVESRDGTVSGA

Row | SMILES | IC50 [1] [µM] | IC50 [2] [µM] | IC50 [3] [µM] | IC50 [4] [µM] | GI50 (MDA-MB-468) [µM] | GI50 (MCF7) [µM] | GI50 (MDA-MB-231) [µM] | GI50 (HCC1954) [µM] | GI50 (SK-BR-3) [µM] | Papp [5] [×10⁻⁶ cm/s] | IC50 (Cytochrome P450 2D6) [µM] | IC50 (Cytochrome P450 2C19) [µM] | IC50 (Cytochrome P450 1A2) [µM] | IC50 (Cytochrome P450 3A4) [µM] | IC50 (Cytochrome P450 2C9) [µM]
1 | COc1cc(/C=C2\C(=O)N(C)c3ccc(Br)cc32)cc(Cl)c1O | 6.1 | > 10 |  |  |  |  |  |  |  |  |  |  |  |  | 
2 | CC(=O)Nc1ccc2c(c1)/C(=C\c1ccc3cn[nH]c3c1)C(=O)N2 | 6.3 | > 10 | > 10 | 10 |  |  |  |  |  |  |  |  |  |  | 
3 | O=C1Nc2ccc(Cl)cc2/C1=C\c1ccc2cn[nH]c2c1 | 0.054 | > 10 | > 10 | > 10 |  |  |  |  |  |  |  |  |  |  | 
4 | O=C1Nc2ccccc2/C1=C\c1ccc2cn[nH]c2c1 |  | 24 | > 10 | 5.7 |  |  |  |  |  |  |  |  |  |  | 
5 | COc1ccc2c(c1)/C(=C\c1ccc3c(/C=C/c4ccncc4)n[nH]c3c1)C(=O)N2 | 0.00045 | > 10 | > 10 | > 10 | 0.14 | 0.04 | 21 | 3.1 |  |  |  |  |  |  | 
6 | O=C1Nc2ccccc2/C1=C\c1ccc2c(/C=C/c3ccc(C(=O)O)cc3)n[nH]c2c1 | 0.00082 | > 10 | > 10 | > 10 | 0.8 | 6.8 | > 50 | 2 | 16 | 2.1 |  |  |  |  | 
7 | O=C1Nc2ccc(Cl)cc2/C1=C\c1ccc2c(/C=C/c3ccncc3)n[nH]c2c1 | 0.0023 | > 10 | > 10 | > 10 | 0.32 | 0.16 | > 50 | > 50 | > 50 |  |  |  |  |  | 
8 | CNC(=O)c1ccccc1Sc1ccc2c(/C=C/c3ccccn3)n[nH]c2c1 [AXITINIB] |  |  |  |  | 1.3 |  |  | 2.7 |  |  |  |  |  |  | 
9 | O=C1Nc2ccc(F)cc2/C1=C/c1ccc2cn[nH]c2c1 | 0.24 | 15 | 24 | > 10 |  |  |  |  |  |  |  |  |  |  | 
10 | O=C1Nc2ccc(F)cc2/C1=C\c1ccc2cn[nH]c2c1 | 0.06 | 15 |  | 4.4 |  |  |  |  |  |  |  |  |  |  | 
11 | O=C1Nc2ccccc2/C1=C\c1ccc2c(/C=C/c3ccccn3)n[nH]c2c1 | 0.013 | > 10 | > 10 | > 10 | 0.78 | 1.7 | 8.1 | 30 | 1.2 |  |  |  |  |  | 
12 | O=C1Nc2ccccc2/C1=C/c1ccc(O)cc1 | 0.23 | 25 |  |  |  |  |  |  |  |  |  |  |  |  | 
13 | Cc1ccc2c(c1)/C(=C\c1ccc3c(/C=C/c4ccncc4)n[nH]c3c1)C(=O)N2 | 0.0014 | > 10 | > 10 | > 10 | 0.12 | 0.07 | 5 | 13 | > 50 |  |  |  |  |  | 
14 | COc1ccc2c(c1)/C(=C\c1ccc3c(/C=C/c4cccnc4)n[nH]c3c1)C(=O)N2 | 0.00048 | > 10 | > 10 | > 10 | 0.19 | 0.12 | > 50 | > 50 | 4.6 |  |  |  |  |  | 
15 | COc1ccc2c(c1)/C(=C\c1ccc3cn[nH]c3c1)C(=O)N2 | 0.047 | 10 | < 10 | < 10 |  |  |  |  |  |  |  |  |  |  | 
16 | COc1ccc2c(c1)/C(=C\c1ccc3c(/C=C/c4ccc(CN(C)C)cc4)n[nH]c3c1)C(=O)N2 | 0.00032 | > 10 | > 10 | > 10 | 0.03 | < 0.01 | 0.01 | 1.4 | 0.03 |  |  |  |  |  | 

Row | SMILES | IC50 [1] [µM] | IC50 [2] [µM] | IC50 [3] [µM] | IC50 [4] [µM] | GI50 (MDA-MB-468) [µM] | GI50 (MCF7) [µM] | GI50 (MDA-MB-231) [µM] | GI50 (HCC1954) [µM] | GI50 (SK-BR-3) [µM] | Papp [5] [×10⁻⁶ cm/s] | IC50 (Cytochrome P450 2D6) [µM] | IC50 (Cytochrome P450 2C19) [µM] | IC50 (Cytochrome P450 1A2) [µM] | IC50 (Cytochrome P450 3A4) [µM] | IC50 (Cytochrome P450 2C9) [µM]
17 | O=C1Nc2cc(Cl)ccc2/C1=C\c1ccc2cn[nH]c2c1 | 1.3 | 26 | > 10 | > 10 |  |  |  |  |  |  |  |  |  |  | 
18 | CNC(=O)c1ccc2c(c1)/C(=C\c1ccc3cn[nH]c3c1)C(=O)N2 | 10 | 49 |  |  |  |  |  |  |  |  |  |  |  |  | 
19 | O=C1Nc2ccccc2/C1=C/c1ccc2[nH]ncc2c1 | 0.39 | 20 | 11 | 1.9 |  |  |  |  |  |  |  |  |  |  | 
20 | O=C1Nc2ccccc2/C1=C/c1cccc(O)c1 | 0.86 | 25 |  |  |  |  |  |  |  |  |  |  |  |  | 
21 | COc1cc(/C=C2\C(=O)Nc3ccc(Br)cc32)cc(Br)c1OC | 13 | > 10 |  |  |  |  |  |  |  |  |  |  |  |  | 
22 | O=C1Nc2ccc(Br)cc2/C1=C/c1ccc(O)c(O)c1 | 13 | > 10 |  |  |  |  |  |  |  |  |  |  |  |  | 
23 | O=C1Nc2ccc(I)cc2/C1=C/c1cc(Br)c(O)c(Br)c1 | 0.23 | 4.6 |  |  |  |  |  |  |  |  |  |  |  |  | 
24 | CN1CCN(c2ccc(/C=C/c3n[nH]c4cc(/C=C5/C(=O)Nc6ccccc65)ccc34)cn2)CC1 | 0.0014 | > 10 | > 10 | > 10 | 0.02 | 0.02 | < 0.01 | 0.37 | 1.1 | 335 | 10 | 0.44 | 10 | 0.8 | 0.9
25 | CC(=O)Nc1ccc2c(c1)NC(=O)/C2=C/c1ccc2cn[nH]c2c1 | 1.2 | > 10 | > 10 | 10 |  |  |  |  |  |  |  |  |  |  | 
26 | COc1cc(/C=C2\C(=O)Nc3ccc(Br)cc32)cc(Cl)c1O | 0.86 | 3.6 |  |  |  |  |  |  |  |  |  |  |  |  | 
27 | O=C1Nc2ccccc2/C1=C/c1ccccc1O | 6.1 | 29 |  |  |  |  |  |  |  |  |  |  |  |  | 
28 | O=C1Nc2ccc(O)cc2/C1=C\c1ccc2c(/C=C/c3ccncc3)n[nH]c2c1 | 0.0009 | > 10 | > 10 | > 10 | 0.73 | > 50 |  | > 50 | > 50 | 4 |  |  |  |  | 
29 | O=C1Nc2ccccc2/C1=C\c1ccc2[nH]nnc2c1 | 2.2 | 29 | > 10 | 8.9 |  |  |  |  |  |  |  |  |  |  | 
30 | CCc1ccc2c(c1)/C(=C\c1ccc3c(/C=C/c4cccnc4)n[nH]c3c1)C(=O)N2 | 0.0016 | > 10 | > 10 | > 10 | 0.09 | 1.7 | > 50 | 33 | 13 |  |  |  |  |  | 
31 | O=C1Nc2ccccc2/C1=C\c1ccc2c(/C=C/c3cccnc3)n[nH]c2c1 | 0.002 | > 10 | > 10 | > 10 | 0.29 | 0.28 | > 50 | 12 | > 50 |  |  |  |  |  | 
32 | O=C1Nc2ccccc2/C1=C\c1ccc2c(/C=C/c3ccccc3)n[nH]c2c1 | 0.042 | > 10 | > 10 | > 10 | 4.4 | 5.2 | > 50 |  | 12 |  |  |  |  |  | 
